In ChEMBL document CHEMBL1926644, “Novel substrate-based inhibitors of human glutamate carboxypeptidase II with enhanced lipophilicity” (J Med Chem, 2011):

Legend:
[1] = target: Glutamate carboxypeptidase 2 (Homo sapiens, UniProt Q04609); assay: Inhibition of glutamate carboxypeptidase 2 in human LNCAP cells assessed as glutamate formation using NAAG as substrate after 60 mins by fluorometric analysis; assay type: cell-based
Homo sapiens = species: Homo sapiens; assay: Ratio of Km for wild type recombinant human glutamate carboxypeptidase 2 to Km for recombinant human glutamate carboxypeptidase 2 K699S mutant

Sequence of Glutamate carboxypeptidase 2 (Q04609 whole entry): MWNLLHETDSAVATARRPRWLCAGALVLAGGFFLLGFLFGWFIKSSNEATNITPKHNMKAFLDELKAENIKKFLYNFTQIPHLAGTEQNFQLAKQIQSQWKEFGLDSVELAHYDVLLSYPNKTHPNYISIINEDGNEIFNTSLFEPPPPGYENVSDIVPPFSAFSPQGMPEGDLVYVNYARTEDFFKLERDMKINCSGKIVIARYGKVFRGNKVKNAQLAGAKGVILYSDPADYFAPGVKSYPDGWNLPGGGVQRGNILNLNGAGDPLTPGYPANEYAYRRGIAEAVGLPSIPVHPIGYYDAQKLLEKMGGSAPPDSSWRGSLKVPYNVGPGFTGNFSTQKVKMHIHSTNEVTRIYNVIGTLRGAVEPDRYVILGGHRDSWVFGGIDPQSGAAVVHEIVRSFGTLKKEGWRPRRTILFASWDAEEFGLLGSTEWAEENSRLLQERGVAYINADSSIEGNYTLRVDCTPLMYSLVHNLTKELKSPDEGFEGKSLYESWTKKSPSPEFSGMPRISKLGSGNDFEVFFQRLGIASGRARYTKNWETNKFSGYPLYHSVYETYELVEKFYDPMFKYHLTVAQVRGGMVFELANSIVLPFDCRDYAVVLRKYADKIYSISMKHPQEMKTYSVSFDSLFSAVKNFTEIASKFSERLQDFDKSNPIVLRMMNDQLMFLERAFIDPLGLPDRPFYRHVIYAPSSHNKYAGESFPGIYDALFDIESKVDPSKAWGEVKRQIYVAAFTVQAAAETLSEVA

SMILES | Ki [1] [nM] | Ratio (Homo sapiens)
CCC[C@H](NC(=O)N[C@@H](CCCCNC(=O)c1ccc(I)cc1)C(=O)O)C(=O)O | 145 | 
C[C@H](NC(=O)N[C@@H](CCCCNC(=O)c1ccc(I)cc1)C(=O)O)C(=O)O | 325 | 
O=C(O)CNC(=O)N[C@@H](CCCCNC(=O)c1ccc(I)cc1)C(=O)O | 4390 | 
CC[C@H](NC(=O)N[C@@H](CCCCNC(=O)c1ccc(I)cc1)C(=O)O)C(=O)O | 121 | 
CCCCCCCC(NC(=O)[C@H](CC(=O)O)NC(C)=O)C(=O)O (mixture of isomers) |  | 3

More lines, now with the values ahead:

Ki [1] [nM] | Ratio (Homo sapiens) | SMILES
72 |  | CCCCCC[C@H](NC(=O)N[C@@H](CCCCNC(=O)c1ccc(I)cc1)C(=O)O)C(=O)O
20 |  | CCCCC[C@H](NC(=O)N[C@@H](CCCCNC(=O)c1ccc(I)cc1)C(=O)O)C(=O)O
56 |  | CCCC[C@H](NC(=O)N[C@@H](CCCCNC(=O)c1ccc(I)cc1)C(=O)O)C(=O)O
29 |  | CCCCCCC[C@H](NC(=O)N[C@@H](CCCCNC(=O)c1ccc(I)cc1)C(=O)O)C(=O)O
